Laboratory results taken from patent publication US20120015331A1, “SCAFFOLD” (priority 2009, published 2012).
Structures can show the parent of a compound that is named as a salt.

Tests used:
L. Casei = experiment: Bacterial killing assay (PDT, Example 5); assay type: cell-based; conditions: 22 μM erythrosine in BHI broth
Protocol: L. Casei is a known constituent of gut microflora. A growth curve for L. Casei both in the presence and without erythrosine was prepared using broth turbidity measured by spectrophotometry using a Shimadzu UV-1601 UV-Visible spectrophotometer. L. Casei were grown in Brain Heart Infusion (BHI) liquid broth at 37° C. to stationary phase overnight. A fresh volume of BHI broth containing erythrosine released from the scaffold at a concentration known to be effective for PDT was inoculated using the stationary phase culture and incubated at 37° C. in a shaking incubator. Bacteria were also incubated in BHI with non scaffold derived erythrosine, BHI containing an equal concentration of scaffold breakdown products from a non erythrosine containing scaffold or blank scaffold and BHI alone with no additives. Since bacteria are most sensitive to PDT during log phase this was chosen as the time most appropriate for irradiation therefore irradiation took place 2 hours 30 minutes after inoculation. […] Following irradiation bacterial viability was assessed by spreading broth samples on Columbia blood agar plates and following 48 hour incubation counting the number of visible colonies. The number of colony forming units (cfu)/ml of broth were then calculated. […]

L casei = L casei cultures in BHI with additives, foil-wrapped or exposed to light (Example 16); assay type: cell-based
Protocol: Pieces of blank PGA scaffold and PGA scaffold containing 5 w/w % erythrosine B were incubated overnight in BHI and the scaffold was removed before adding L Casei culture, the erythrosine B concentration was measured and adjusted to 22 μM. For each of the ‘media’ shown in Table 1, two tubes of culture, one tube wrapped in foil, were exposed to light for 30 minutes. After exposure to light, serial dilutions were made of the cultures in BHI which were then grown on Columbian blood agar plates for 48 hours. The number of colonies on the plates was then counted and those having between 30 and 300 colonies were used to calculate the cfu/ml for the cultures. […] PDT (erythrosine plus light) causes 6 logs of cell kill, whereas in the presence of glycolic acid released from the scaffold (or added to a similar concentration out of a bottle), the amount of cell killing doubles or more.

O=C1OC2(c3ccccc31)c1cc(I)c(O)c(I)c1Oc1c2cc(I)c(O)c1I [Erythrosin B, disodium salt of 2′,4,′5,′7′-tetraiodofluorescein]
log10 kill (L. Casei; 10 minutes irradiation): 6.1 log10
log10 kill (L. Casei; 30 minute irradiation): 6.4 log10
cell kill by PDT (erythrosine plus light) (L casei; 22 μM, light for 30 minutes): 6 logs
colony forming units, culture tubes wrapped in foil and exposed to light (F) (L casei; BHI, 30 minutes, foil-wrapped, erythrosin 22 μM where present): 2.75 × 10^8 cfu/ml
colony forming units, culture tubes exposed to light (L) (L casei; BHI, exposed to light for 30 minutes, erythrosin 22 μM where present): 2.1 × 10^2 cfu/ml
